Among the data in patent US4657913A, “Trifluoro- quinoline -3-carboxylic acids and their use as anti-bacterial agents” (Warner-Lambert Company, priority 1985, dated 1987) are MIC values, retold here.

≈ marks a conversion by molar mass, not a printed value.

Common to all, as to assay: microtitration dilution method, in vitro antibacterial activity (MIC)
What all share (assay type): cell-based

For experiment [1], the system named is Streptococcus pyogenes C-203. Particulars: C203, read-out: Minimal Inhibitory Concentration MIC. The source says:
(§1) The compounds of the invention display antibacterial activity when tested by the microtitration dilution method as described in Heifetz, et al, Antimicr. Agents & Chemoth., 6, 124 (1974), which is incorporated herein by reference.
(§2) By use of the above referenced method, the following minimum inhibitory concentration values (MICs in μg/ml) were obtained for representative compounds of the invention.

In experiment [2] the test system is Proteus rettgeri M 1771. Particulars: Providencia rettgeri, M1771, read-out: Minimal Inhibitory Concentration MIC.
Description: as §1, §2

Experiment [3] concerns Streptococcus pneumoniae SV-1. Particulars: SV1, read-out: Minimal Inhibitory Concentration MIC.
Description: as §1, §2

Experiment [4] relates to Klebsiella pneumoniae MGH-2. Particulars: MGH2, read-out: Minimal Inhibitory Concentration MIC.
Description: as §1, §2

For experiment [5], the system named is Enterobacter cloacae MA 2646. Conditions: MA2646, read-out: Minimal Inhibitory Concentration MIC.
Description: as §1, §2

In experiment [6] the test system is Staphlococcus aureus H 228. Conditions: read-out: Minimal Inhibitory Concentration MIC.
Description: as §1, §2

The test system of experiment [7] is Staphylococcus aureus UC-76. Conditions: UC76, read-out: Minimal Inhibitory Concentration MIC.
Description: as §1, §2

The test system of experiment [8] is Escherichia coli Vogel. Particulars: read-out: Minimal Inhibitory Concentration MIC.
Description: as §1, §2

Experiment [9] has as its system Pseudomonas aeruginosa UI-18. Conditions: UI18, read-out: Minimal Inhibitory Concentration MIC.
Description: as §1, §2

For experiment [10], the system named is Streptococcus faecalis MGH-2. Conditions: Enterococcus faecalis, MGH2, read-out: Minimal Inhibitory Concentration MIC.
Description: as §1, §2

On to `CCn1cc(C(=O)O)c(=O)c2c(F)c(F)c(N3CCC(CN)C3)c(F)c21` (centres unmarked) [Ex. 1A, 7-[3-(Aminomethyl)-1-pyrrolidinyl]-1-ethyl-5,6,8-trifluoro-1,4-dihydro-4-oxo-3-quinolinecarboxylic acid], for which the MIC in [1] is at most 0.1 µg/mL; in [2], 3.1 µg/mL (≈ 8.39 µM); in experiment [3] it was at most 0.1 µg/mL; in [4], 0.8 µg/mL (≈ 2.17 µM); in experiment [5], 0.8 µg/mL (≈ 2.17 µM); in [6], 1.6 µg/mL (≈ 4.33 µM). Also, the MIC stood at 0.8 µg/mL (≈ 2.17 µM) in experiment [7], 0.8 µg/mL (≈ 2.17 µM) in experiment [8], 3.1 µg/mL (≈ 8.39 µM) in experiment [9] and 0.8 µg/mL (≈ 2.17 µM) in [10].

With `CCn1cc(C(=O)O)c(=O)c2c(F)c(F)c(N3CCC4(CCN(C)C4)C3)c(F)c21` (centres unmarked) [Ex. 1B, 1-Ethyl-5,6,8-trifluoro-1,4-dihydro-7-(7-methyl-2,7-diazaspiro[4.4]nonan-2-yl)-4-oxo-3-quinolinecarboxylic acid], the MIC in experiment [1] is 1.6 µg/mL (≈ 3.91 µM); in experiment [2], 6.3 µg/mL (≈ 15.4 µM); in experiment [3], 0.8 µg/mL (≈ 1.95 µM); in experiment [4] it was 1.6 µg/mL (≈ 3.91 µM); in experiment [5], 0.8 µg/mL (≈ 1.95 µM); in [6], 0.8 µg/mL (≈ 1.95 µM). Also, the MIC in experiment [7] came out at 0.2 µg/mL (≈ 0.489 µM); in experiment [8] it was 0.8 µg/mL (≈ 1.95 µM); in experiment [9], 6.3 µg/mL (≈ 15.4 µM); in experiment [10] it was 1.6 µg/mL (≈ 3.91 µM).

On to `CCn1cc(C(=O)O)c(=O)c2c(F)c(F)c(N3CCC(CNC)C3)c(F)c21` (centres unmarked) [Ex. 1C, 1-Ethyl-5,6,8-trifluoro-1,4-dihydro-7-[3-[(methylamino)methyl]-1-pyrrolidinyl]-4-oxo-3-quinolinecarboxylic acid], for which the MIC in experiment [1] was found to be 0.2 µg/mL (≈ 0.522 µM); in experiment [2], 6.3 µg/mL (≈ 16.4 µM); in experiment [3], 0.4 µg/mL (≈ 1.04 µM); in experiment [4], 0.8 µg/mL (≈ 2.09 µM); in experiment [5], 1.6 µg/mL (≈ 4.17 µM); in experiment [6], 0.8 µg/mL (≈ 2.09 µM). Moreover, the MIC was 0.05 µg/mL (≈ 0.13 µM) in experiment [7], 0.4 µg/mL (≈ 1.04 µM) in experiment [8], 3.1 µg/mL (≈ 8.09 µM) in experiment [9] and 0.8 µg/mL (≈ 2.09 µM) in experiment [10].

Take `CCNCC1CCN(c2c(F)c(F)c3c(=O)c(C(=O)O)cn(CC)c3c2F)C1` (centres unmarked) [Ex. 1D, 1-Ethyl-7-[3-[(ethylamino)methyl]-1-pyrrolidinyl]-5,6,8-trifluoro-1,4-dihydro-4-oxo-3-quinolinecarboxylic acid]: the MIC in [1] was determined as 0.2 µg/mL (≈ 0.503 µM); in experiment [2], 0.8 µg/mL (≈ 2.01 µM); in [3], 0.2 µg/mL (≈ 0.503 µM); in experiment [4], 0.8 µg/mL (≈ 2.01 µM); in experiment [5] it was 0.4 µg/mL (≈ 1.01 µM); in [6] it was 0.4 µg/mL (≈ 1.01 µM). The MIC is 0.013 µg/mL (≈ 0.0327 µM) in experiment [7], 0.4 µg/mL (≈ 1.01 µM) in experiment [8], 6.3 µg/mL (≈ 15.9 µM) in [9] and 0.2 µg/mL (≈ 0.503 µM) in experiment [10].

As for `CCNCC1CCN(c2c(F)c(F)c3c(=O)c(C(=O)O)cn(C4CC4)c3c2F)C1` (centres unmarked) [Ex. 2A, 1-Cyclopropyl-7-[3-[(ethylamino)methyl]-1-pyrrolidinyl]-5,6,8-trifluoro-1,4-dihydro-4-oxo-3-quinolinecarboxylic acid], the MIC in [1] worked out at 0.1 µg/mL (≈ 0.244 µM); in experiment [2] it was 1.6 µg/mL (≈ 3.91 µM); in experiment [3], 0.2 µg/mL (≈ 0.489 µM); in experiment [4] it was 0.4 µg/mL (≈ 0.977 µM); in [5], 0.4 µg/mL (≈ 0.977 µM); in experiment [6] it was 0.2 µg/mL (≈ 0.489 µM). Moreover, the MIC is 0.025 µg/mL (≈ 0.0611 µM) in experiment [7], 0.2 µg/mL (≈ 0.489 µM) in experiment [8], 3.1 µg/mL (≈ 7.57 µM) in [9] and 0.2 µg/mL (≈ 0.489 µM) in experiment [10].
